Results reported in patent EP1048669A1, “CARBAPENEM DERIVATIVES” (priority 1997, dated 1999).
Counter-ions that a name gives are not always drawn. Like-named read-outs stand apart in the source and are kept apart here.

How the values were obtained:
[1] = system: male SD rats; test: Toxicity test on the central nervous system (administration to the right ventricle of the brain); type: in vivo; conditions: observed thirty minutes
Source text: A chronic guide cannula was inserted into the right ventricle of the brain of 7-weeks old male SD rats (n = 5) and immobilized with a dental resin. […] After the administration, behavior of the animal was visually examined in an observing cage for thirty minutes.

[2] = system: MRSA BB6294; test: In vitro antibacterial activity, agar plate dilution method (MIC), MRSA conditions; type: cell-based, methicillin-resistant Staphylococcus aureus; conditions: Staphylococcus aureus, read-out: Minimum growth inhibitory concentrations (MIC)
Procedure: (§1) A Mueller Hinton agar (MH agar) was inoculated with a platinum loop quantity (the quantity of inoculated bacterium: 10^6 CFU/ml) of each test bacterial strain which had been cultured overnight in Mueller Hinton broth. The culture medium contained an antibacterial agent at a varied concentration. After a culture at 37°C for 16 hours, the minimum growth inhibitory concentration (MIC: µg/ml) of the compound of this invention was measured. When MRSA was used as the test strain, a medium containing 2% sodium chloride was used as the test medium in accordance with the above-mentioned agar plate dilution method, and the minimum growth inhibitory concentration (MIC: µg/ml) of the compound of this invention was measured under culture conditions of 35°C, 48 hours.

[3] = system: P. aeruginosa IFO-3445; test: In vitro antibacterial activity, agar plate dilution method (MIC); type: cell-based; conditions: Pseudomonas aeruginosa, read-out: Minimum growth inhibitory concentrations (MIC)
Procedure: as §1

[4] = system: E. coli NIHJ JC2; test: as above; type: cell-based; conditions: Escherichia coli, read-out: Minimum growth inhibitory concentrations (MIC)
Procedure: as §1

[5] = In vivo stability test (TLC bioautography of urine); set-up: species or system rhesus monkey
Procedure: The compound of Example 1 was used as a representative compound, and the compound of Example 139B of Document A was used as a comparative compound. A test agent (10 mg/kg) was intravenously administered to 4-years old male rhesus monkey (body weight 5.48 kg) over a period of 5 minutes. The urine was collected over a period of 0-1 hour and over a period of 1-2 hours, both after the administration. The urine samples were stored at an ice-cooled temperature. A TLC plate (silica gel 60F-254, manufactured by Merck Co.) which had been activated just before use at 120°C for 30 minutes and spotted with 4 µl of each urine sample, was developed with a solvent in a closed vessel (developing solvent: CH3CN/H2O/CH3COOH/25% NH4OH = 45:30:6:2; pH 5.3). After completion of the development, the TLC plate was taken out of the vessel, and dried. An AM-1 medium (manufactured by Difco Co.) containing a test strain (B. subtilis ATCC 12432) was contacted with the silica gel surface of the TLC plate at ambient temperature for 30 minutes. After stripping off the TLC plate, the medium was cultured at 37°C overnight. Rf value of a clear zone formed by the growth inhibition of test strain was determined. As control, the test compound was dissolved in 10 mmol MOPS buffer (pH 7) at the concentration of 250 µg/ml, and 2 µl of this solution was spotted on a TLC plate.

[6] = system: Pseudomonas aeruginosa; conditions: especially against Pseudomonas aeruginosa; cited from earlier work
[7] = target: T1, Metallo-β-lactamase encoded by plasmid pMS350 (Serratia marcescens, UniProt P52699); test: β-Lactamase inhibition test (Nitrocefin substrate); type: biochemical, Pseudomonas aeruginosa GN17203; conditions: Nitrocefin 37.5 µg/ml, 30°C for 15 minutes, Zn2+ 100 µM, MOPS buffer
T1 construct: made in house
T1 sequence (P52699 19-246): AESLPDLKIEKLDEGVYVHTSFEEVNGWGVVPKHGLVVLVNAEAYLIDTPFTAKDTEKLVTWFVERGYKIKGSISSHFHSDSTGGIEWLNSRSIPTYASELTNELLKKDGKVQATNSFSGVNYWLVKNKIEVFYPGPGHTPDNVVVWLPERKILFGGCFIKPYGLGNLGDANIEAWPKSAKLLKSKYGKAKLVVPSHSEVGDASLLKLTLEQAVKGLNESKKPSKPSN
Procedure: Metallo-β-lactamase encoded by plasmid pMS350 originated from Pseudomonas aeruginosa GN17203 was purified and used for this test. The enzyme previously gave a single protein band on SDS/PAGE (specific activity: 70 U/mg protein). The enzymatic activity (U) was measured by reacting it with 100 µM of imipenem dissolved in 10 mM 3-morpholinopropanesulfonate buffer (pH 7.0) (hereinafter referred to as MOPS buffer) containing 100 µM zinc chloride, and the quantity of enzyme capable of hydrolyzing 1 µM of imipenem per one minute at a reaction temperature of 30°C was defined as 1 U.
As the screening substrate of this test, Nitrocefin®, OXOID) was used. In each well of a 96 well plate, 1 µl of a test agent dissolved in 10 mM MOPS buffer and 25 µl of metallo-β-lactamase preparation (enzymatic activity: 3-6 mU/ml) were mixed, and then 75 µl of 50 µg/ml Nitrocefin® was added and mixed to create a final substrate concentration of 37.5 µg/ml. The enzymic reaction was carried out at 30°C for 15 minutes and followed by measuring the quantity of hydrolyzed Nitrocefin™ at a wavelength of 492 nm by means of a microplate reader. In this screening system, the operation was carried out in the presence of Zn^2+ (100 µM) in order to eliminate the inhibitory effect due to chelating action. […]

[8] = system: male ICR mice; test: Acute toxicity test (single intravenous administration); type: in vivo; conditions: observed over five days
Procedure: The compound of Example 24 was used as a representative compound. According to "Explanation Book for GLP Standard and Toxicity Test Guideline" (supervised by Department of Examination, Bureau of Pharmacy, Ministry of Health and Welfare; published by Yakuji Shimpou-sha), a test compound was diluted with distilled water for injection use until the agent concentration reached 60.75 mg/ml and once administered intravenously to the tail vein of 6-weeks old male ICR mice at an administration rate of 1 ml/min. After the administration, the state of death and the general motility were observed over five days.

[9] = 200 µg/rat into right ventricle of the brain
[10] = 400 µg/rat into right ventricle of the brain
[11] = mouse, 500 mg/kg intravenously once
[12] = mouse, 1,000 mg/kg intravenously once
[13] = mouse, 1,500 mg/kg intravenously once

With `C[C@H](N)c1ccc([C@H]2C[C@H](SC3=C(C(=O)O)N4C(=O)[C@H]([C@@H](C)O)[C@H]4[C@H]3C)CN2)cc1` [Example 14, (1R,5S,6S)-2-[(3S,5R)-5-[4-[(1S)-aminoethyl]phenyl]-pyrrolidin-3-ylthio]-6-[(R)-1-hydroxyethyl]-1-methyl-1-carbapen-2-em-3-carboxylic acid hydrochloride] the “Number of convulsed cases” value [1, 9] was 0/5, the “Number of dead cases” value [1, 9] was 0/5 and the MIC ([2]; MRSA, 48 h) was 3.13 µg/mL. It also gave an MIC ([3]; IFO3445, 16 h) of 0.1 µg/mL and an MIC ([4]; NIHJJC2, 16 h) of 0.025 µg/mL.

With `C[C@@H](N)c1ccc([C@H]2C[C@H](SC3=C(C(=O)O)N4C(=O)[C@H]([C@@H](C)O)[C@H]4[C@H]3C)CN2)cc1` [Example 15, (1R,5S,6S)-2-[(3S,5R)-5-[4-[(1R)-aminoethyl]phenyl]-pyrrolidin-3-ylthio]-6-[(R)-1-hydroxyethyl]-1-methyl-1-carbapen-2-em-3-carboxylic acid hydrochloride] the “Number of convulsed cases” value [1, 9] was 0/5, the “Number of dead cases” value [1, 9] was 0/5 and the MIC ([2]; MRSA, 48 h) was 3.13 µg/mL. For the same compound, the MIC ([3]; IFO3445, 16 h) was 0.2 µg/mL and the MIC ([4]; NIHJJC2, 16 h) was 0.025 µg/mL.

With `CNCc1ccc([C@H]2C[C@H](SC3=C(C(=O)O)N4C(=O)[C@H]([C@@H](C)O)[C@H]4[C@H]3C)CN2)cc1.Cl` [Example 1, (1R,5S,6S)-2-[(3S,5R)-5-[4-N-methylaminomethylphenyl]-pyrrolidin-3-ylthio]-6-[(R)-1-hydroxyethyl]-1-methyl-1-carbapen-2-em-3-carboxylic acid hydrochloride] the “Number of convulsed cases” value [1, 10] was 0/5, the “Number of dead cases” value [1, 10] was 0/5 and the “Rf value, Control” value ([5]; control: test compound in 10 mmol MOPS buffer (pH 7), 250 µg/ml, spotted on TLC plate, clear zone with B. subtilis ATCC 12432) was 0.40. The “Rf value, Accumulated urine during 0-1 hr after administration” value ([5]; rhesus monkey, 10 mg/kg intravenously, urine 0-1 hr, TLC clear zone with B. subtilis ATCC 12432) was 0.40 and the “Rf value, Accumulated urine during 1-2 hrs after administration” value ([5]; rhesus monkey, 10 mg/kg intravenously, urine 1-2 hrs, TLC clear zone with B. subtilis ATCC 12432) was 0.40.

For `C[C@@H](O)[C@H]1C(=O)N2C(C(=O)O)=C(SCCNC=N)C[C@H]12.O` [Imipenem, (5R,6S)-3-[2-(formimidoylamino)-ethylthio]-6-[(R)-1-hydroxyethyl]-7-oxo-1-azabicyclo[3.2.0]hepta-2-ene-2-carboxylic acid monohydrate], the “enhanced antibacterial activity compared to the parent antibiotic, thienamycin” value [6] is listed as 2-4 times.

Work on `C=CCOC(=O)N(C)Cc1ccc([C@H]2C[C@H](SC(C)=O)CN2C(=O)OCC=C)cc1` [Compound of Referential. Ex. 1, (2R,4S)-4-Acetylthio-1-allyloxycarbonyl-2-(4-N-allyloxycarbonyl-N-methylaminomethyl)phenylpyrrolidine] yielded an IC50 [7] of under 100 nM.

For `C[C@@H](O)[C@H]1C(=O)N2C(C(=O)O)=C(S[C@@H]3CN[C@@H](c4ccc(C(N)CC(N)=O)cc4)C3)[C@H](C)[C@H]12.Cl` (stereo partly drawn) [Example 24, (1R,5S,6S)-2-[(3S,5R)-5-[4-(1-amino-2-carbamoylethyl)-phenyl]pyrrolidin-3-ylthio]-6-[(R)-1-hydroxyethyl]-1-methyl-1-carbapen-2-em-3-carboxylic acid hydrochloride], the “Motility and general symptoms” value [8, 11] was “No abnormality”, the “Number of alive animals” value [8, 11] was 2/2 and the “Motility and general symptoms” value [8, 12] was “No abnormality”. The “Number of alive animals” value [8, 12] was 5/5, the “Motility and general symptoms” value [8, 13] was “No abnormality” and the “Number of alive animals” value [8, 13] was 5/5.

For `C[C@@H](O)[C@H]1C(=O)N2C(C(=O)O)=C(S[C@@H]3CN[C@@H](c4csc(CN)c4)C3)[C@H](C)[C@H]12.Cl` [Example 32, (1R,5S,6S)-2-[(3S,5R)-5-(2-aminomethyl-4-thienyl)-pyrrolidin-3-ylthio]-6-[(R)-1-hydroxyethyl]-1-methyl-1-carbapen-2-em-3-carboxylic acid hydrochloride], the MIC ([2]; MRSA BB6294, medium containing 2% sodium chloride, 35°C, 48 hours) was 3.13 µg/mL, the MIC ([3]; IFO3445, P. aeruginosa IFO-3445, MH agar, 10^6 CFU/ml, 37°C for 16 hours) was 0.39 µg/mL and the MIC ([4]; NIHJJC2, E. coli NIHJ JC2, MH agar, 10^6 CFU/ml, 37°C for 16 hours) was 0.025 µg/mL.
